Measurements: US10508105B2, “Indazole compounds as mGluR4 allosteric potentiators, compositions, and methods of treating neurological dysfunction” (Vanderbilt University, priority 2017, dated 2019)
pEC50: −log10 of the molar value. Read-outs that look alike come from different tables or passages of the source.

Tests used:
human mGlu4 = human mGlu4 (Homo sapiens (Human), UniProt Q14833); assay: mGlu4 PAM assay in human mGlu4/Gqi5 cells with ~EC20 glutamate (Hamamatsu FDSS); format: cell-based; conditions: ~EC20 concentration of glutamate
human mGlu4, sequence (Q14833 33-912): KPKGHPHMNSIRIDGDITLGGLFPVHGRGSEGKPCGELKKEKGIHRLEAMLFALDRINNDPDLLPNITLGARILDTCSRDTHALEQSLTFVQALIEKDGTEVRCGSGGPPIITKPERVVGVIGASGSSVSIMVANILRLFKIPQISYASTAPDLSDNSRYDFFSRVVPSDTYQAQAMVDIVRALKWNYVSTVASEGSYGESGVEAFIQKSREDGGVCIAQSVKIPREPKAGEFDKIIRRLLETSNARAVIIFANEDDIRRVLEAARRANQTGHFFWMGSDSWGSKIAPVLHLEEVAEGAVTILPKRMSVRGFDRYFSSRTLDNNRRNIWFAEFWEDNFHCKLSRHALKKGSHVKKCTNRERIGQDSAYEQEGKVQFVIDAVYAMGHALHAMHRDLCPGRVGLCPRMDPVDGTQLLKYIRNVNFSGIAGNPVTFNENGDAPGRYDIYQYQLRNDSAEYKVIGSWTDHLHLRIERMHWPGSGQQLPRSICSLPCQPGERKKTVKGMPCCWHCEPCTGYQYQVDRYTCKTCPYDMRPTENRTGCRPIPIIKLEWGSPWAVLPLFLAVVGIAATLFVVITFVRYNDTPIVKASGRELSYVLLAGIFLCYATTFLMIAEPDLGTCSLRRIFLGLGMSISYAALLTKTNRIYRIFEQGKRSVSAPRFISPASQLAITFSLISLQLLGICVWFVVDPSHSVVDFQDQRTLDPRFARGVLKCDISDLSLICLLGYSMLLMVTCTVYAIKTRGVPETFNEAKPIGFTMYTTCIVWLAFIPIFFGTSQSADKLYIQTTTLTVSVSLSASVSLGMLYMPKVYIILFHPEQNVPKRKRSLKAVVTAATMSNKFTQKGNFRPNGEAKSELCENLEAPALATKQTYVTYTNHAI
Description: The disclosed compounds and compositions can be evaluated for their ability to act as a potentiatior of metabotropic glutamate receptor activity, in particular mGluR4 activity, by any suitable known methodology known in the art. For example, Chinese Hamster Ovary (CHO) cells transfected with human mGluR4 or HEK cells co-transfected with rat mGluR4 and the G-protein regulated Inwardly Rectifying Potassium channel (GIRK) were plated in clear bottom assay plates for assay in a Hamamatsu FDSS Fluorometric Plate Reader. The cells were loaded with either a Ca2+-sensitive fluorescent dye or the thallium responsive dye and the plates were washed and placed into a suitable kinetic plate reader. For human mGluR4 assays, a fluorescence baseline was established for 3-5 seconds, the disclosed compounds were then added to the cells, and the response in cells was measured. Approximately two and a half minutes later, a concentration of mGluR4 orthosteric agonist (e.g. glutamate, L-AP4, or L-SOP) eliciting approximately 20% (EC20) of the maximal agonist response was added to the cells, and the response was measured. Two minutes later, a concentration of mGluR4 agonist (e.g. glutamate, L-AP4, or L-SOP) eliciting 80% (EC80) of the maximal agonist response was added to the cells, and the response was measured. For rat mGluR4/GIRK experiments, a baseline was established for approximately five seconds, disclosed compounds were added, and either an EC20 or EC80 concentration of agonist was added approximately two and one half minutes later.
The above described assay operated in two modes. In the first mode, a range of concentrations of the disclosed compounds are added to cells, followed by a single fixed concentration of agonist. If the compound acts as a potentiatior, an EC50 value for potentiation and a maximum extent of potentiation by the compound at this concentration of agonist is determined by non-linear curve fitting. If the compound acts as an antagonist, an IC50 value is determined by non-linear curve fitting. In the second mode, several fixed concentrations of the disclosed compounds are added to various wells on a plate, followed by a range in concentrations of agonist for each concentration of disclosed compound. The EC50 values for the agonist at each concentration of compound are determined by non-linear curve fitting. A decrease in the EC50 value of the agonist with increasing concentrations of the sample compound (a leftward shift of the agonist concentration-response curve) is an indication of the degree of mGluR4 potentiation at a given concentration of the sample compound. A decrease in the maximal response of the agonist with increasing concentrations of the sample compounds, with or without a rightward shift in agonist potency, is an indication of the degree of antagonism at mGluR4. The second mode also indicates whether the sample compounds also affect the maximum response to mGluR4 to agonists.

Brain-Plasma Kp = format: in vivo; conditions: brain and plasma

SMILES	pEC50 (human mGlu4; read-out: mGlu4 PAM EC50)	further results
Cn1nc(OC[C@H]2CCOC2)c2ncc(NC(=O)c3ncccc3N)cc21 [drawing 247]		pEC50 (human mGlu4; read-out: hmGluR4 PAM EC50): 6.78; Kp (Brain-Plasma Kp; rat): 1.83
Cn1nc(OC[C@@H]2COCCO2)c2ccc(NC(=O)c3ncccc3N)cc21 [drawing 248]		pEC50 (human mGlu4; read-out: hmGluR4 PAM EC50): 7.30; Kp (Brain-Plasma Kp; rat): 2.3
Cn1nc(OCC2CCOCC2)c2ccc(NC(=O)c3ccc(F)cn3)cc21		pEC50 (human mGlu4; read-out: hmGluR4 PAM EC50): 7.00; Kp (Brain-Plasma Kp): 3.29
Cn1nc(OC[C@@H]2CCOC2)c2ncc(NC(=O)c3ncccc3N)cc21 [drawing 246]		pEC50 (human mGlu4; read-out: hmGluR4 PAM EC50): 6.92; Kp (Brain-Plasma Kp; rat): 1.84
Cn1nc(OC[C@H]2COCCO2)c2ccc(NC(=O)c3ncccc3N)cc21 [drawing 249]		pEC50 (human mGlu4; read-out: hmGluR4 PAM EC50): 7.23; Kp (Brain-Plasma Kp; rat): 1.88
Cn1nc(C(=O)NC2CC(F)(F)C2)c2ccc(NC(=O)c3ccc(F)cn3)cc21		pEC50 (human mGlu4; read-out: hmGluR4 PAM EC50): 6.49; Kp (Brain-Plasma Kp; rat): 1.09
Cn1nc(OCC2CCOC2)c2ccc(NC(=O)c3ncccc3N)cc21 (stereo not drawn) [drawing 241]		pEC50 (human mGlu4; read-out: hmGluR4 PAM EC50): 7.12; Kp (Brain-Plasma Kp; rat): 3.09
O=C(Nc1ccc2c(OC[C@@H]3CCOC3)n[nH]c2c1)c1ccccn1		pEC50 (human mGlu4; read-out: hmGluR4 PAM EC50): 6.70; Kp (Brain-Plasma Kp; rat): 1.44
Cn1nc(OCC2CCCCO2)c2ccc(Nc3n[nH]c4cccnc34)cc21 (stereo not drawn) [Compound 14]	7.07	
Cn1nc(OC[C@H]2CCOC2)c2ccc(NC(=O)c3ncccc3N)cc21 [drawing 245]		pEC50 (human mGlu4; read-out: hmGluR4 PAM EC50): 7.62; Kp (Brain-Plasma Kp; rat): 2.9
Cn1nc(OCC2CCCOC2)c2ccc(NC(=O)c3ccccn3)cc21 (stereo not drawn) [Compound 85]	6.77	
Cn1nc(OCC2CCOC2)c2ccc(NC(=O)c3cccc(F)n3)cc21 (stereo not drawn) [drawing 251]		pEC50 (human mGlu4; read-out: hmGluR4 PAM EC50): 6.58; Kp (Brain-Plasma Kp; rat): 3.35
Cn1nc(OCC2CCOCC2)c2ncc(Nc3n[nH]c4ncccc34)cc21 [Compound 62]	6.45	
[2H]C([2H])(C)Oc1nn(C)c2cc(Nc3n[nH]c4cccnc34)ccc12 [Compound 7]	6.45	
Cn1nc(OCC2CC2(F)F)c2ccc(Nc3n[nH]c4cccnc34)cc21 (stereo not drawn) [Compound 31]	6.95	
Cn1nc(OC2CCS(=O)(=O)C2)c2ccc(NC(=O)c3ncccc3N)cc21 (stereo not drawn) [Compound 54]	6.93	
COCCOc1nn(C)c2cc(Nc3n[nH]c4cccnc34)ccc12 [Compound 23]	6.42	
O=C(Nc1ccc2c(OCC3CCOC3)n[nH]c2c1)c1ccccn1 (stereo not drawn)		pEC50 (human mGlu4; read-out: hmGluR4 PAM EC50): 6.44; Kp (Brain-Plasma Kp; rat): 2.09
Cn1nc(OC2CCOC[C@H]2F)c2ccc(NC(=O)c3ccccn3)cc21 (stereo partly drawn) [Compound 70]	7.07	

SMILES	pEC50 (human mGlu4; read-out: mGlu4 PAM EC50)	further results
Cn1nc(OCC2CCOCC2)c2ncc(NC(=O)c3ccccn3)cc21 [drawing 243]		pEC50 (human mGlu4; read-out: hmGluR4 PAM EC50): 6.40; Kp (Brain-Plasma Kp; rat): 1.51
Cn1nc(OCc2ccccn2)c2ccc(Nc3n[nH]c4cccnc34)cc21 [Compound 17]	6.34	
Cn1nc(OC[C@@H]2CCOC2)c2ccc(NC(=O)c3ncccc3N)cc21 [drawing 244]		pEC50 (human mGlu4; read-out: hmGluR4 PAM EC50): 7.56; Kp (Brain-Plasma Kp; rat): 2.47
Cn1nc(OC[C@@H]2COCCO2)c2ccc(NC(=O)c3ccccn3)cc21		pEC50 (human mGlu4; read-out: hmGluR4 PAM EC50): 6.92; Kp (Brain-Plasma Kp; rat): 1.47
Cn1nc(OC[C@H]2CCOC2)c2ccc(NC(=O)c3ncccc3N)cc21 [Compound 80]	7.43	
Cn1nc(Oc2ccc(C#N)cn2)c2ccc(Nc3n[nH]c4cccnc34)cc21 [Compound 11]	6.80	
Cn1nc(OCCN2CCOCC2)c2ccc(NC(=O)c3ncccc3N)cc21 [Compound 77]	6.88	
Cn1nc(OC2CCOCC2F)c2ccc(NC(=O)c3ncccc3N)cc21 (stereo not drawn) [Compound 71]	6.90	
Cn1nc(OC[C@@H]2CCOC2)c2ncc(NC(=O)c3ncccc3N)cc21 [Compound 83]	6.92	
CC1CC(Oc2nn(C)c3cc(NC(=O)c4ccccn4)ccc23)CCO1 (stereo not drawn) [Compound 73]	6.40	
Cn1nc(OC[C@@H]2CCOC2)c2ccc(NC(=O)c3ncccc3N)cc21 [Compound 79]	7.56	
Cn1nc(OCC2CCOCC2)c2ncc(NC(=O)c3ncccc3O)cc21 [Compound 59]	6.22	
Cn1nc(OCC2CCOC2)c2ncc(Nc3n[nH]c4cccnc34)cc21 (stereo not drawn) [Compound 60]	6.53	
Cn1nc(C(=O)NC23CC(F)(C2)C3)c2ccc(NC(=O)c3ccccn3)cc21		pEC50 (human mGlu4; read-out: hmGluR4 PAM EC50): 6.24; Kp (Brain-Plasma Kp; rat): 1.43
Cn1nc(OCC2CCOC2)c2ncc(NC(=O)c3ncccc3N)cc21 (stereo not drawn) [drawing 242]		pEC50 (human mGlu4; read-out: hmGluR4 PAM EC50): 7.06; Kp (Brain-Plasma Kp; rat): 0.72
COCCOc1nn(C)c2cc(Nc3n[nH]c4ncccc34)ccc12 [Compound 34]	6.28	
[2H]C([2H])([2H])Oc1nn(C)c2cc(Nc3n[nH]c4cccnc34)ccc12 [Compound 8]	6.53	
O=C(Nc1ccc2c(OC[C@H]3CCOC3)n[nH]c2c1)c1ccccn1		pEC50 (human mGlu4; read-out: hmGluR4 PAM EC50): 6.64; Kp (Brain-Plasma Kp; rat): 1.42
CCCOc1nn(C)c2cc(Nc3n[nH]c4cccnc34)ccc12 [Compound 9]	6.77	

More lines, main results first:

pEC50 (human mGlu4; read-out: mGlu4 PAM EC50)	SMILES	further results
6.74	Cn1nc(OCC2CCCOC2)c2ccc(NC(=O)c3ncccc3N)cc21 (stereo not drawn) [Compound 86]	
6.53	Cn1nc(OCC2COC(C)(C)C2)c2ccc(NC(=O)c3ccc(F)cn3)cc21 (stereo not drawn) [Compound 103]	
7.61	Cn1nc(OC[C@@H]2COCCO2)c2ccc(NC(=O)c3ncccc3N)cc21 [Compound 130]	
6.00	Cn1nc(OCC2CCOC2)c2ccc(NC(=O)c3cc(F)ccn3)cc21 (stereo not drawn) [Compound 98]	
7.52	Cn1nc(OC[C@@H]2COCCO2)c2ccc(NC(=O)c3ncccc3N)cc21 [Compound 93]	
7.20	Cn1nc(OCC2CCCOC2)c2ccc(Nc3n[nH]c4cccnc34)cc21 (stereo not drawn) [Compound 88]	
6.09	Cn1nc(OCC2CCOC2)c2ccc(NC(=O)c3cccc(Cl)n3)cc21 (stereo not drawn) [Compound 99]	
7.30	[2H]C([2H])([2H])n1nc(OCC2CCOC2)c2ccc(NC(=O)c3ccccn3)cc21 (stereo not drawn) [Compound 110]	
7.12	Cn1nc(OCC2CCOC2)c2ccc(NC(=O)c3ncccc3N)cc21 (stereo not drawn) [Compound 115]	
6.85	Cn1nc(OC2CCS(=O)(=O)CC2)c2ccc(NC(=O)c3ncccc3N)cc21 [Compound 113]	
6.30	Cn1nc(OCC2CCOC2)c2ccc(NC(=O)c3ncccc3F)cc21 (stereo not drawn) [Compound 97]	
7.23	Cn1nc(OC[C@H]2COCCO2)c2ccc(NC(=O)c3ncccc3N)cc21 [Compound 94]	
7.35	CC1CC(COc2nn(C)c3cc(NC(=O)c4ccccn4)ccc23)CC(C)O1 (stereo not drawn) [Compound 107]	
7.30	Cn1nc(OCC2CCOC2)c2ccc(NC(=O)c3ccc(F)cn3)cc21 (stereo not drawn) [Compound 91]	
7.23	Cn1nc(OCC2CCOC(C)(C)C2)c2ccc(NC(=O)c3ccccn3)cc21 (stereo not drawn) [Compound 104]	
6.90	Cn1nc(OCC2CCOC(C)(C)C2)c2ccc(NC(=O)c3ncccc3N)cc21 (stereo not drawn) [Compound 105]	
6.38	Cn1nc(C(=O)NC2CCOC2)c2ccc(NC(=O)c3ncccc3N)cc21 (stereo not drawn) [Compound 111]	
7.20	Cn1nc(OCC2CCOCC2)c2ccc(NC(=O)c3ccccn3)cc21 [Compound 116]	
6.56	Cn1nc(OCC2CCOC(C)(C)C2)c2ccc(NC(=O)c3ccc(F)cn3)cc21 (stereo not drawn) [Compound 106]	
6.47	Cc1ccoc1C(=O)Nc1ccc2c(OCC3CCOC3)nn(C)c2c1 (stereo not drawn) [Compound 96]	
